Results reported in BigSolDB 2.1.

Cl.OC(CCCN1CCCCC1)(c1ccccc1)c1ccccc1
solubility (mole fraction)
Conditions | 278.15 K | 283.15 K | 288.15 K | 293.15 K | 298.15 K | 303.15 K | 308.15 K | 313.15 K | 318.15 K | 323.15 K
in DMAc | 0.00189 | 0.00221 | 0.00254 | 0.00305 | 0.00357 | 0.00407 | 0.00457 | 0.00525 | 0.00596 | 0.00697
in DMF | 0.00285 | 0.00316 | 0.00357 | 0.00408 | 0.00466 | 0.00515 | 0.00615 | 0.00688 | 0.00811 | 0.00923
in DMSO | – | – | – | 0.0121 | 0.0134 | 0.0148 | 0.0167 | 0.019 | 0.0213 | 0.0242
in NMP | 0.00427 | 0.00492 | 0.0056 | 0.00616 | 0.00725 | 0.00826 | 0.00921 | 0.0104 | 0.012 | 0.0141
in acetic acid | – | – | – | 0.00434 | 0.00601 | 0.00965 | 0.016 | 0.0263 | 0.0428 | 0.0632
in acetonitrile | 0.000127 | 0.00016 | 0.000224 | 0.000306 | 0.000412 | 0.000497 | 0.000623 | 0.000747 | 0.000892 | 0.00105
in ethanol | 0.00161 | 0.00196 | 0.00227 | 0.00275 | 0.00336 | 0.00405 | 0.00485 | 0.00585 | 0.00706 | 0.00867
in methanol | 0.00929 | 0.0109 | 0.0127 | 0.0152 | 0.0177 | 0.0207 | 0.0245 | 0.0285 | 0.0337 | 0.0397
in n-butanol | 0.000548 | 0.000685 | 0.000907 | 0.00113 | 0.00137 | 0.00169 | 0.00206 | 0.00247 | 0.00304 | 0.00398
in n-pentanol | 0.000228 | 0.000359 | 0.000562 | 0.00075 | 0.000981 | 0.00121 | 0.00164 | 0.00212 | 0.00265 | 0.00327
in n-propanol | 0.00115 | 0.00151 | 0.00199 | 0.0025 | 0.00255 | 0.00309 | 0.00364 | 0.00454 | 0.00575 | 0.00708
in water | 0.000935 | 0.001 | 0.00112 | 0.00125 | 0.00135 | 0.0015 | 0.00165 | 0.00173 | 0.00193 | 0.00216
